Reference: PubChem BioAssay (NCI)
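Protocol summary: plate cells (96-well), add compound at 5 concentrations, incubate 48 h, interpolate endpoints linearly. GI50 is the concentration that inhibits growth by half. Definition used: TGI = concentration required for complete inhibition of growth.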

Columns and labels:
Assay in all cases: growth of human tumour cells (NCI), 48 h
[1] = system: SNB-75 CNS
[2] = system: LOX IMVI melanoma
[3] = system: HT29 colon
[4] = system: A498 renal
[5] = system: T-47D breast
[6] = system: OVCAR-4 ovarian
[7] = system: NCI-H226 lung
[8] = system: NCI/ADR-RES ovarian
[9] = system: CAKI-1 renal
[10] = system: SK-MEL-28 melanoma

SMILES | GI50 [1] | TGI [1] | GI50 [2] | TGI [2] | GI50 [3] | TGI [3] | GI50 [4] | TGI [4] | GI50 [5] | TGI [5] | GI50 [6] | TGI [6] | GI50 [7] | TGI [7] | GI50 [8] | TGI [8] | GI50 [9] | TGI [9] | GI50 [10] | TGI [10]
O=C(Nc1ccc(-n2cc(-c3ccncc3)c(-c3ccc(O)c(Cl)c3)n2)cc1)Nc1ccc(Cl)c(C(F)(F)F)c1 | 2.59 µM | 14.3 µM | 2.14 µM | 18 µM | 10.2 µM | 25.2 µM | 14.8 µM | 34.3 µM | 8.61 µM | 64.1 µM | 3.97 µM | 29.9 µM | 21.4 µM | 51.8 µM | 4.1 µM | 52.7 µM | 3.17 µM | 19.8 µM | 3.64 µM | 15 µM
c1ccc(C(NC2=NCCO2)c2ccccc2)cc1 | – | > 10 µM | – | > 10 µM | – | > 10 µM | – | > 10 µM | – | > 10 µM | – | > 10 µM | – | > 10 µM | – | > 10 µM | – | > 10 µM | – | > 10 µM
C/C(=N\NC(=S)N(C)C)c1nc2ncccc2[nH]1 | – | > 100 µM | – | > 100 µM | – | > 100 µM | – | 69.5 µM | – | 14.7 µM | – | 10.6 µM | – | 2.05 µM | – | 12.6 µM | – | 3.75 µM | – | > 100 µM
OCCCNc1ncnc2[nH]ncc12 | – | > 100 µM | – | > 100 µM | – | > 100 µM | – | > 100 µM | – | > 100 µM | – | > 100 µM | – | > 100 µM | – | > 100 µM | – | > 100 µM | – | > 100 µM
C/C(=N\NC(=S)NCCCCNC(=S)N/N=C(\C)c1ccccn1)c1ccccc1 | – | 9.92 µM | – | 14.3 µM | – | > 100 µM | – | 15 µM | – | – | – | > 54.2 µM | – | > 23.6 µM | – | 3.86 µM | – | > 100 µM | – | > 100 µM
CC(C)C(=O)CC(c1ccc(Cl)cc1)N1N=C(C(C)C)CC1c1ccc(Cl)cc1 (centres undefined) | – | > 100 µM | – | > 100 µM | – | > 100 µM | – | – | – | – | – | – | – | > 100 µM | – | – | – | > 94.9 µM | – | > 100 µM
Cc1c(Cl)nc(Cl)nc1Cl | – | 11.7 µM | – | 1.34 µM | – | 6.4 µM | – | 11.9 µM | – | 4.11 µM | – | 2.8 µM | – | 8.46 µM | – | 4.45 µM | – | 0.695 µM | – | 8.5 µM
CCCn1cc2c(SC)nc(SC)nc2n1 | – | > 100 µM | – | > 100 µM | – | > 100 µM | – | > 100 µM | – | – | – | > 100 µM | – | > 100 µM | – | – | – | > 100 µM | – | > 100 µM
Cn1ccc(C(=O)NCCN(CCNC(=O)c2ccn(C)c(=O)c2O)CCNC(=O)c2ccn(C)c(=O)c2O)c(O)c1=O | – | > 100 µM | – | – | – | > 100 µM | – | > 100 µM | – | > 100 µM | – | > 100 µM | – | > 100 µM | – | > 100 µM | – | > 100 µM | – | > 100 µM
CCOC(=O)C(Cc1cn(C(C)=O)c2ccccc12)P(=O)(OCC)OCC (centres undefined) | – | > 100 µM | – | > 100 µM | – | > 100 µM | – | – | – | > 100 µM | – | > 100 µM | – | > 100 µM | – | > 100 µM | – | > 100 µM | – | > 100 µM
Cc1[nH]c(=O)[nH]c(=O)c1/C=C/C(=O)NC(CO)CS(=O)Cc1ccccc1 (centres undefined) | – | > 300 µM | – | > 300 µM | – | > 300 µM | – | > 300 µM | – | – | – | – | – | > 300 µM | – | > 300 µM | – | > 300 µM | – | > 300 µM
